Source: US20020052363A1, “Inhibitors of prenyl-protein transferase” (priority 2000, published 2002)

Tested on: prenyl-protein transferases
Experiment: the disclosed assays (not specified which)

Cc1cccc(Oc2cc(Cn3c(CN4CCN(C(=O)OC(C)(C)C)CC4)cnc3C)ccc2C#N)n1 [Example 1 Step G, 1-(tert-butoxycarbonyl)-4-[1-(3-((6-methyl-2-pyridyl)oxy)-4-cyanobenzyl)-2-methyl-5-imidazolylmethyl]piperazine]
activity in the disclosed assays: active
